{"source": "patent US20200123208A1", "about": "“PEPTIDES AND NEMATICIDAL COMPOSITIONS” (priority 2017, published 2020)", "data": [{"test_system": "Meloidogyne incognita J2s", "test": "Serotonin-induced stylet thrusting assay, M. incognita J2s", "format": "in vivo", "conditions": "100 μM uNLP, 24 h, 5 mM serotonin", "protocol": "(§1) Predicted uNLPs from both M. incognita and G. pallida were synthesised by EZBiolab and dissolved into pH adjusted ddH2O to make a 5 mM stock which was aliquoted and stored at −20° C. J2s of both M. incognita and G. pallida were incubated for 24 hours in 200 μl of each peptide in a 24 well plate (SPL Lifesciences, South Korea) at a defined concentration.\nStylet thrusting assays where performed by incubating 100 M. incognita or G. pallida J2s for 15 minute in 5 mM or 2 mM serotonin (Sigma Aldrich, USA), respectively. J2s were placed on a glass slide and stylet thrusts were counted for randomly selected J2s, for 1 minute each. Counting took place for a maximum of 15 minutes. Longer incubations yielded inconsistent results. At least 30 J2s were counted for each neuropeptide treatment.", "values": [{"sequence": "SSLASGRIGFRPA [Mi-NLP-2, predicted unamidated NLP of Meloidogyne incognita]", "rate of serotonergic-induced stylet thrusting compared with controls": "164.4%+/−20.3"}, {"sequence": "AFDRLDVSPFDFDAMT [Mi-NLP-8a, predicted unamidated NLP of Meloidogyne incognita]", "rate of serotonergic-induced stylet thrusting compared with controls": "126.1%+/−9.278"}, {"sequence": "AFDSFAGNGFTGFD [Mi-NLP-15f, predicted unamidated NLP of Meloidogyne incognita]", "rate of serotonergic-induced stylet thrusting compared with controls": "75.18%+/−9.199"}, {"sequence": "SFGDYPFGSRTFAFA [Mi-NLP-18c, predicted unamidated NLP of Meloidogyne incognita]", "rate of serotonergic-induced stylet thrusting compared with controls": "175.5%+/−20.72"}, {"sequence": "GGARAFAKLEE [Mi-NLP-9c, predicted unamidated NLP of Meloidogyne incognita]", "rate of serotonergic-induced stylet thrusting compared with controls": "143.2%+/−9.878"}]}, {"test_system": "Meloidogyne incognita J2s", "test": "Tomato invasion assay, M. incognita J2s", "format": "in vivo", "conditions": "100 μM uNLP, 24 h, tomato seedlings, normalised to negative control", "protocol": "as §1\nTomato seeds were sterilised with 2.5% NaOCl for 15 minutes, washed 5 times in ddH2O and germinated on 0.5% Murashige and Skoog plates at 23° C. […] Invasion assays were performed by mixing 500 pre-treated M. incognita or G. pallida J2s with agar slurry and a single tomato seedling (2 days post germination) in a 6 well plate. Assays were left at 23° C. for 24 hours in the case of M. incognita and at 18° C. for 24 hours in the case of G. pallida under a 16 hour light and 8 hour darkness cycle. Seedlings were stained using acid fuschin [69] and the number of nematodes within the roots counted.", "values": [{"sequence": "GGARPFYGFFGGGEGTW [Mi-NLP-9e, predicted unamidated NLP of Meloidogyne incognita]", "host invasion compared to controls": "48.68%+/−10.87"}, {"sequence": "AGARAFQRPDFDDASYEL [Mi-NLP-9a, predicted unamidated NLP of Meloidogyne incognita]", "host invasion compared to controls": "45.59%+/−22.97"}, {"sequence": "FNDDELSSLPFNFEYFPSLDTH [Mi-NLP-8b, predicted unamidated NLP of Meloidogyne incognita]", "host invasion compared to controls": "61.38%+/−11.56"}, {"sequence": "SAFDSFVGRGFTGMD [Mi-NLP-15e, predicted unamidated NLP of Meloidogyne incognita]", "host invasion compared to controls": "38.71%+/−5.963"}, {"sequence": "FAPRQFAFA [Mi-NLP-18a, predicted unamidated NLP of Meloidogyne incognita]", "host invasion compared to controls": "25.88%+/−8.695"}, {"sequence": "SSQFGGENSFARFAFA [Mi-NLP-18e, predicted unamidated NLP of Meloidogyne incognita]", "host invasion compared to controls": "46.49%+/−7.391"}, {"sequence": "AFDRLDNSFMLL [Mi-NLP-8d, predicted unamidated NLP of Meloidogyne incognita]", "host invasion compared to controls": "29.31%+/−12.57"}]}, {"test_system": "Meloidogyne incognita infective stage juveniles (J2s)", "test": "Chemosensory (chemotaxis) assay towards root exudate, M. incognita J2s", "format": "in vivo", "conditions": "M. incognita J2s, 100 μM uNLP, 24 h; mean+/-SEM", "protocol": "as §1\n(§2) A 60 mm Petri dish was divided into two segments, a positive and a negative side, with a 0.5 cm ‘dead zone’ either side of the centre point. The petri dish was filled with 15 ml of 0.25% w/v agar which was allowed to solidify. 3 ml of 0.25% w/v agar slurry in spring water (pH 7, agitated with a magnetic stirrer for several hours to give a smooth consistency) was added to the petri dish and spread evenly over the surface. Root diffusate (attractant) and water only (control) 0.25% agar plugs were embedded in the agar slurry, either side of the assay arena. Root diffusate was collected from 10 tomato plants, aged 3-6 weeks in 1 litre pots, by pouring 500 ml of ddH2O through the soil three times. Diffusate from each plant was combined, filter sterilised and stored at 4° C. for a maximum of 1 month. Root diffusate agar plugs were made by melting 1.25% agar in ddH2O, cooling to 50° C. before mixing with 4 parts of root diffusate. The agar was then allowed to solidify at room temperature. 100 uNLP pre-treated M. incognita or G. pallida J2s were added by pipette to the centre of the plate. J2s which moved out of the ‘dead zone’ after 3 hours were counted and their location (+/−) scored. The distribution of J2s were used to create a chemotaxis index for each plate, which formed one replicate, a total of 10 replicates where completed for each uNLP treatment.", "values": [{"sequence": "SFDSFVGKGFTGMD [Mi-NLP-15c, predicted unamidated NLP of Meloidogyne incognita]", "chemotaxis index (Cl) towards root exudate": "−0.359+/−0.277"}, {"sequence": "ALDLMEGDGFGGGFD [Mi-NLP-14b, predicted unamidated NLP of Meloidogyne incognita]", "chemotaxis index (Cl) towards root exudate": "−0.1155+/−0.1472"}, {"sequence": "AFDSFGTPGFTGFD [Mi-NLP-15a, predicted unamidated NLP of Meloidogyne incognita]", "chemotaxis index (Cl) towards root exudate": "−0.01067+/−0.06497"}, {"sequence": "AFDRLDVSPFDFDAMT [Mi-NLP-8a, predicted unamidated NLP of Meloidogyne incognita]", "chemotaxis index (Cl) towards root exudate": "0.018+/−0.3438"}, {"sequence": "AFDSFAGNGFTGFD [Mi-NLP-15f, predicted unamidated NLP of Meloidogyne incognita]", "chemotaxis index (Cl) towards root exudate": "−0.05+/−0.3547"}, {"sequence": "SAFDSFVGRGFTGMD [Mi-NLP-15e, predicted unamidated NLP of Meloidogyne incognita]", "chemotaxis index (Cl) towards root exudate": "−0.01767+/−0.09428"}, {"sequence": "FAPRQFAFA [Mi-NLP-18a, predicted unamidated NLP of Meloidogyne incognita]", "chemotaxis index (Cl) towards root exudate": "−0.1353+/−0.1129"}, {"sequence": "GGARTFLVGE [Mi-NLP-9b, predicted unamidated NLP of Meloidogyne incognita]", "chemotaxis index (Cl) towards root exudate": "−0.07417+/−0.154"}]}, {"test_system": "Globodera pallida infective stage juveniles (J2s)", "test": "Chemosensory (chemotaxis) assay towards root exudate, G. pallida J2s", "format": "in vivo", "conditions": "100 μM uNLP, 24 h, mean+/-SEM", "protocol": "as §1, §2", "values": [{"sequence": "AFDSFTGPGFTGMD [Gp-NLP-15g, predicted unamidated NLP of Globodera pallida]", "chemotaxis index (Cl) towards root exudate": "−0.2208 +/−0.1568"}, {"sequence": "ALDILDGDDFTGFS [Gp-NLP-14e, predicted unamidated NLP of Globodera pallida]", "chemotaxis index (Cl) towards root exudate": "−0.0641+/−0.2329"}, {"sequence": "ALDILESDDFGGF [Gp-NLP-14a, predicted unamidated NLP of Globodera pallida]", "chemotaxis index (Cl) towards root exudate": "−0.3765+/−0.1039"}, {"sequence": "SFDSLTGPGFTGLDT [Gp-NLP-15a, predicted unamidated NLP of Globodera pallida]", "chemotaxis index (Cl) towards root exudate": "−0.1451 +/−0.221"}, {"sequence": "AGGRLFRMVDLPDGDDFVPEG [Gp-NLP-21e, predicted unamidated NLP of Globodera pallida]", "chemotaxis index (Cl) towards root exudate": "−0.3804+/−0.2762"}, {"sequence": "GGARPFYGGGYMDGTW [Gp-NLP-21f, predicted unamidated NLP of Globodera pallida]", "chemotaxis index (Cl) towards root exudate": "0.1456+/−0.1232"}, {"sequence": "AFDLFTGPGFTGMD [Gp-NLP-15h, predicted unamidated NLP of Globodera pallida]", "chemotaxis index (Cl) towards root exudate": "−0.06784+/−0.1415"}]}]}
